Several values for one entry are separate records, joined by “and”; a condition that tells them apart may be missing. Equal values may be shown once.
Tested on: LRRK2 S935 phosphorylation
Assay: Western blot of LRRK2 biomarker site pS935 in transfected 293T cells
Format: cell-based, human
Description: For all in cell kinase assays, after 48 hours, transfected cells were treated with either DMSO (control) or the indicated inhibitors for 4 hours at 37°C and 5% CO2. Following treatments, cells were washed three times with ice cold PBS. Cells were then lysed in ice cold radioimmunoprecipitation assay (RIPA) lysis buffer [50 mM tris (pH 8.0), 150 mM NaCl, 1% Triton X-100, 0.1% SDS, 0.5% sodium deoxycholate, and 1 mM DTT] in the presence of complete mini EASYpack protease inhibitor cocktail and the PhosSTOP EASYpack phosphatase inhibitor cocktail (Roche). Resuspended and lysed cells were clarified by centrifugation at 13,000g for 15 min at 4°C. NuPAGE LDS Sample Buffer (1×) and NuPAGE Sample Reducing Agent (1×; Invitrogen) were added to the clarified supernatants, and the samples were boiled at 95°C for 5 min and spun down at 13,000g for 10 min. For Western blotting, 15 μl of sample was loaded into a NuPAGE 4 to 12% gradient bis-tris gel (Invitrogen) and run at 120 V for 75 min before transfer to polyvinylidene difluoride transfer membrane (0.45-μm pore size, Millipore) for 240 min at 80 V at 4°C. The membrane was blocked in 5% milk in 1× Tris-buffered saline (TBS) [20 mM tris (pH 8.0) and 150 mM NaCl] for 1 hour shaking at room temperature. Primary antibodies [monoclonal rabbit anti-LRRK2 (Abcam, ab133474; RRID: AB_2713963), polyclonal rabbit anti-LRRK1 (Abcam, ab228666), monoclonal rabbit anti-LRRK2 phospho-S935 (Abcam, ab133450; RRID: AB_2732035), monoclonal rabbit anti-Rab8a phospho-T72 (Abcam, ab230260; RRID: AB_2814988), monoclonal rabbit anti-Rab7 phospho-S72 (Abcam, ab302494; RRID: AB_2933985), monoclonal rabbit anti–glyceraldehyde-3-phosphate dehydrogenase (GAPDH; Cell Signalling Technology, 2118; RRID: AB_561053), and monoclonal mouse anti-GFP (Santa Cruz Biotechnology, sc-9996; RRID: AB_627695)] were diluted in 5% milk in TBS and incubated with membrane for 16 hours at 4°C. Following incubation, membranes were washed three times with 1× TBS-T [20 mM tris (pH 8.0), 150 mM NaCl, and 0.1% Tween 20] before incubation with IRDye 680RD goat anti-rabbit IgG (LI-COR, 926-68071; RRID: AB_10956166) and IRDye 800CW goat anti-mouse IgG (LI-COR, 926-32210; RRID: AB_621842) secondary antibodies in 5% milk in 1× TBS for 1 hour at room temperature. Membranes were then washed three times in 1× TBS-T before imaging on Li-COR Odyssey CLx controlled by Imaging Studio software (www.licorbio.com/image-studio, RRID:SCR_015795). Image processing and quantification were performed in ImageJ version 2.14.0 (National Institutes of Health; https://imagej.net/, RRID:SCR_003070). The signal intensity of each band was assessed using the Analyze>Gels tool. The band intensity for phosphorylated LRRK2 was measured and compared to total LRRK2 levels (run under identical conditions on a separate gel). Band intensity for phosphorylated Rab7 or Rab8a was measured and compared against total GFP-Rab7 or GFP-Rab8a (using anti-GFP antibody) and LRRK1/LRRK2 levels as appropriate. Comparative statistical analysis of phosphorylation levels was analyzed using a one-way analysis of variance (ANOVA) and corrected using Tukey’s multiple comparisons test in GraphPad Prism 10 (www.graphpad.com/, RRID:SCR_002798). (For current step-by-step protocol for LRRK transfection and Western blotting, see dx.doi.org/10.17504/protocols.io.kxygx9bozg8j/v1.)

C[C@@H]1CN(c2cc(-c3n[nH]c4ccc(OC5(C)CC5)cc34)ncn2)C[C@H](C)O1 [MLi-2, reference compound]
pS935 LRRK2/LRRK2 normalized to DMSO, Mean (500 nM, 4 h, 3 replicates): 0.05291 | pS935 LRRK2/LRRK2 normalized to DMSO (500 nM, 4 h, individual Western blots): 0.09836 and 0.02387 and 0.03651 | effect on phosphorylation of LRRK2 S935 (293T cells, MLi-2 500 nM): almost complete dephosphorylation
